Usually EC50 stands for the concentration that produces a half-maximal response.

Each structure is given as a SMILES string. Starred links: 1 amine or outer side, 2 acyl side, 3 side chain; linkers in the order of their positions; H or OH if unused. Residues, ends and D or L forms follow the SMILES beside them. *: point of attachment. C20 diacid = O=C(O)CCCCCCCCCCCCCCCCCCC(=O)*; C18 diacid = O=C(O)CCCCCCCCCCCCCCCCC(=O)*; γGlu = O=C(O)[C@H](CCC(=O)[*:2])N[*:1]

Consider three molecules from patent publication US12116388B2, “Amylin receptor agonists” (Novo Nordisk A/S, priority 2022, dated 2024).

The target of experiment [1] is T1, human calcitonin receptor (hCTR) (Homo sapiens, UniProt P30988).
T1 construct: host or cells: BHK (Baby Hamster Kidney), Hollex-1 cell line
T1 sequence (P30988 25-474): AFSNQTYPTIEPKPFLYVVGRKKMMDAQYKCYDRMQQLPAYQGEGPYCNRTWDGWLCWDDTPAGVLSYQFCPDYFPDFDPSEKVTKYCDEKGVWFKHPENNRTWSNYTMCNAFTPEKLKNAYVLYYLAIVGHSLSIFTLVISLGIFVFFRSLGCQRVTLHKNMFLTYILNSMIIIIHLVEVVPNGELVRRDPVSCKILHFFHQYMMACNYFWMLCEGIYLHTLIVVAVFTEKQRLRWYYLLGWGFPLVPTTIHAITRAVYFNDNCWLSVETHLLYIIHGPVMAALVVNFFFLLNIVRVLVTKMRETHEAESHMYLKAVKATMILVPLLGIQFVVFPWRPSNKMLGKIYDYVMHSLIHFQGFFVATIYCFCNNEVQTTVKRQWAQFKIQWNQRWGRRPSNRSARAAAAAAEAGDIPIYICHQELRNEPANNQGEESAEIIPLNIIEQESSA
In words: Human calcitonin receptor (hCTR) in vitro potency assay, CRE-luciferase reporter in BHK cells. Type of experiment: cell-based. The note with it: BHK hCTR/CRE-Luc cells, 3 hours incubation, assay buffer with 1% ovalbumin; read-out: hCalcR potency, EC50. From the text:
Activation of hCTR leads to increased cellular concentrations of CAMP. Consequently, transcription is activated by promotors containing multiple copies of the CAMP response element (CRE). It is thus possible to measure hCTR activity using a CRE-luciferase reporter gene introduced into Baby Hamster Kidney (BHK) cells co-expressing the hCTR.
A BHK cell line was stably transfected with the human calcitonin receptor (a) and a CRE-responsive luciferase (CRE-Luc) reporter gene according to methods known to the person skilled in the art (Hollex-1 cell line, obtained from Zymogenetics described in U.S. Pat. No. 5,622,839).
(§1) Cells stocks were prepared by culturing of the stably transfected BHK hCTR/CRE-Luc cell line in growth medium consisting of DMEM (Gibco, 31966-021) supplemented with 10% FBS (Gibco, 16140-071), 1% Pen/Strep (Gibco, 15140-122), 0.5 mg/mL Geneticin (Gibco, 10131-027) and 250 nM Methotrexate (Sigma, A6770). Cells at approximately 80-90% confluence were washed once with PBS (Gibco 14190-094) and loosened from the cell flasks with Versene (Gibco, 15040-033) or TrypLE™ (Gibco, 12605-010). After centrifugation, the cell pellet was dissolved and diluted to approximately 2.5×10E6 cells/mL in Recovery™ Cell Culture Freezing Medium (Gibco, 12648-010). Cells were aliquoted and stored at −180° C. until use.
(§2) The assay buffer consisted of DMEM without phenol red (Gibco, 11880-028) supplemented with 1× GlutaMAX (Gibco, 35050-038), 10 mM HEPES (Gibco, 15630-056) and 1% (w/v) ovalbumin (Sigma, A5503).
(§3) To perform the assay, BHK hCTR/CRE-Luc cells were thawed, washed once in PBS and seeded in 40 μL growth medium in a white 384-well culture plate (PerkinElmer, 6007688) at a cell density of 4.000 cells/well on the day before the experiment. The plate was incubated over night at 37° C. in 5% CO2. On the day of the assay, cells were washed once in assay buffer. Serial dilutions (7-fold dilutions, 7 concentrations Pr. compound and one well containing only assay buffer) of comparator compounds and amylin analogues were performed in assay buffer often starting from approximately 10 nM in 96-well plates and 30 μL of each concentration added to the 384-well assay plate with cells. The assay plate was incubated for 3 hours at 37° C. in 5% CO2 after which 30 μL SteadyLite Plus (PerkinElmer, 6066759) was added to each well. The assay plate was sealed, incubated at room temperature with gentle shaking for 5 minutes followed by 30 minutes incubation without shaking while protected from light. Luminescence was detected on a luminescence plate reader e.g. a Synergy 2 (BioTek).

For experiment [2], the target named is T2, human amylin receptor (hAMYR3) (Homo sapiens, UniProt O60896+P30988).
T2 construct: host or cells: BHK (Baby Hamster Kidney), Hollex-1 cell line further transfected with RAMP3
As to the kind of experiment: Human amylin receptor (hAMYR3) in vitro potency assay, CRE-luciferase reporter in BHK cells. Type of experiment: cell-based. The following applies: BHK hAMYR3/CRE-Luc cells, 3 hours incubation, assay buffer with 1% ovalbumin.
Source text: Activation of hAMYR3 leads to increased cellular concentrations of cAMP. Consequently, transcription is activated by promotors containing multiple copies of the CAMP response element (CRE). It is thus possible to measure hAMYR3 activity using a CRE-luciferase reporter gene introduced into Baby Hamster Kidney (BHK) cells co-expressing the hAMYR3.
A BHK cell line was stably transfected with the human calcitonin receptor (a) and a CRE-responsive luciferase (CRE-Luc) reporter gene according to methods known to the person skilled in the art (Hollex-1 cell line, obtained from Zymogenetics described in U.S. Pat. No. 5,622,839). The cell line was further transfected with human receptor modifying protein 3 (RAMP3) using standard methods. This turns the human calcitonin receptor into a human amylin-3(a) receptor.
as §1, with “hAMYR3/CRE-Luc” for “hCTR/CRE-Luc”, “10131-027), 0.4 mg/mL Hygromycin (Invitrogen, 10687010)” for “10131-027)”
as §2
as §3, with “hAMYR3/CRE-Luc” for “hCTR/CRE-Luc”
(In a reporter assay the amount or activity of a reporter protein is the signal.)

T2 sequence (O60896 24-148, one chain of several): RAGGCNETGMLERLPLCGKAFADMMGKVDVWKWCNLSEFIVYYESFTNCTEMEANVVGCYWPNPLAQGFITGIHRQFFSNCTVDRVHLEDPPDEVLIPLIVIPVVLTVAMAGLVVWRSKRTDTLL

On to `CC[C@H](C)[C@H](NC(=O)[C@H](C)NC(=O)CNC(=O)[C@H](Cc1ccccc1)NC(=O)[C@@H]1CCCN1C(=O)[C@H](CC(=O)O)NC(=O)[C@H](CO)NC(=O)[C@H](CO)NC(=O)[C@H](Cc1c[nH]cn1)NC(=O)[C@H](Cc1c[nH]cn1)NC(=O)[C@H](CC(C)C)NC(=O)[C@H](Cc1ccccc1)NC(=O)[C@H](CCC(=O)O)NC(=O)[C@H](C)NC(=O)[C@H](CC(C)C)NC(=O)[C@H](CCCNC(=N)N)NC(=O)[C@H](CCC(N)=O)NC(=O)[C@@H](NC(=O)[C@H](CCC(N)=O)NC(=O)[C@H](C)NC(=O)[C@@H](NC(=O)[C@H](CO)NC(=O)[C@H](CC(C)C)NC(=O)[C@H](Cc1c[nH]cn1)NC(=O)CNC(=O)[C@H](C)NC(=O)CC[C@H](NC(=O)CCCCCCCCCCCCCCCCCCC(=O)O)C(=O)O)[C@@H](C)O)[C@@H](C)O)C(=O)N1CCC[C@H]1C(=O)N[C@@H](CO)C(=O)N[C@@H](CO)C(=O)N[C@H](C(=O)N[C@@H](CC(=O)O)C(=O)N[C@H](C(=O)NCC(=O)N1CCC[C@H]1C(=O)N[C@@H](CC(=O)O)C(=O)N[C@H](C(=O)N1CCC[C@H]1C(N)=O)[C@@H](C)O)C(C)C)[C@@H](C)O` [Compound 7, N^1-[(4S)-4-carboxy-4-(19-carboxynonadecanoylamino)butanoyl]-[Ala1,Gly2,His3,Leu4,Ser5,Ala7,Gln8,Glu14,His17,Asp21,Pro22,Pro27,Asp31,Pro34,Asp35,Pro37]-human amylin] ({C20 diacid-γGlu}-AGHLSTAQTQRLAEFLHHSSDPFGAIPSSTDVGPDTP-NH2), for which the half-maximal effective concentration (EC50) was 1.81 pM in experiment [1] and 1.68 pM in experiment [2].

In the case of `CC[C@H](C)[C@H](NC(=O)[C@H](C)NC(=O)CNC(=O)[C@H](Cc1ccccc1)NC(=O)[C@@H]1CCCN1C(=O)[C@H](CC(=O)O)NC(=O)[C@H](CO)NC(=O)[C@H](CO)NC(=O)[C@H](Cc1c[nH]cn1)NC(=O)[C@H](Cc1c[nH]cn1)NC(=O)[C@H](CC(C)C)NC(=O)[C@H](Cc1ccccc1)NC(=O)[C@H](CCC(=O)O)NC(=O)[C@H](C)NC(=O)[C@H](CC(C)C)NC(=O)[C@H](CCCNC(=N)N)NC(=O)[C@H](CCC(N)=O)NC(=O)[C@@H](NC(=O)[C@H](CCC(N)=O)NC(=O)[C@H](C)NC(=O)[C@@H](NC(=O)[C@H](CO)NC(=O)[C@H](CC(C)C)NC(=O)[C@H](Cc1c[nH]cn1)NC(=O)[C@H](CO)NC(=O)[C@H](C)NC(=O)CC[C@H](NC(=O)CC[C@H](NC(=O)CCCCCCCCCCCCCCCCC(=O)O)C(=O)O)C(=O)O)[C@@H](C)O)[C@@H](C)O)C(=O)N1CCC[C@H]1C(=O)N[C@@H](CO)C(=O)N[C@@H](CO)C(=O)N[C@H](C(=O)N[C@@H](CC(=O)O)C(=O)N[C@H](C(=O)NCC(=O)N1CCC[C@H]1C(=O)N[C@@H](CC(=O)O)C(=O)N[C@H](C(=O)N1CCC[C@H]1C(N)=O)[C@@H](C)O)C(C)C)[C@@H](C)O` [Compound 9, N^1-[(4S)-4-carboxy-4-[[(4S)-4-carboxy-4-(17-carboxyheptadecanoylamino)butanoyl]amino]butanoyl]-[Ala1,Ser2,His3,Leu4,Ser5,Ala7,Gln8,Glu14,His17,Asp21,Pro22,Pro27,Asp31,Pro34,Asp35,Pro37]-human amylin] ({C18 diacid-γGlu-γGlu}-ASHLSTAQTQRLAEFLHHSSDPFGAIPSSTDVGPDTP-NH2), the EC50 is 1.68 pM in experiment [1] and 2.18 pM in experiment [2].

As for `CC[C@H](C)[C@H](NC(=O)[C@H](C)NC(=O)CNC(=O)[C@H](Cc1ccccc1)NC(=O)[C@@H]1CCCN1C(=O)[C@H](CC(=O)O)NC(=O)[C@H](CO)NC(=O)[C@H](CO)NC(=O)[C@H](Cc1c[nH]cn1)NC(=O)[C@H](Cc1c[nH]cn1)NC(=O)[C@H](CC(C)C)NC(=O)[C@H](Cc1ccccc1)NC(=O)[C@H](CCC(=O)O)NC(=O)[C@H](C)NC(=O)[C@H](CC(C)C)NC(=O)[C@H](CCCNC(=N)N)NC(=O)[C@H](CCC(N)=O)NC(=O)[C@@H](NC(=O)[C@H](CCC(N)=O)NC(=O)[C@H](C)NC(=O)[C@@H](NC(=O)[C@H](CO)NC(=O)[C@H](CC(C)C)NC(=O)[C@H](CCC(=O)O)NC(=O)CNC(=O)[C@H](C)NC(=O)CC[C@H](NC(=O)CCCCCCCCCCCCCCCCC(=O)O)C(=O)O)[C@@H](C)O)[C@@H](C)O)C(=O)N1CCC[C@H]1C(=O)N[C@@H](CO)C(=O)N[C@@H](CO)C(=O)N[C@H](C(=O)N[C@@H](CC(=O)O)C(=O)N[C@H](C(=O)NCC(=O)N1CCC[C@H]1C(=O)N[C@@H](CC(=O)O)C(=O)N[C@H](C(=O)N1CCC[C@H]1C(N)=O)[C@@H](C)O)C(C)C)[C@@H](C)O` [Compound 11, N^1-[(4S)-4-carboxy-4-(17-carboxyheptadecanoylamino)butanoyl]-[Ala1,Gly2,Glu3,Leu4,Ser5,Ala7,Gln8,Glu14,His17,Asp21,Pro22,Pro27,Asp31,Pro34,Asp35,Pro37]-human amylin] ({C18 diacid-γGlu}-AGELSTAQTQRLAEFLHHSSDPFGAIPSSTDVGPDTP-NH2), the EC50 was 1.58 pM in experiment [1] and 2.43 pM in experiment [2].
